Reference: a compilation of properties of binary mixtures (doi:10.1016/j.molliq.2020.114720)

Assay: xn = mol fraction of the nth substance listed
Conditions: 101 kPa

CC(=O)[O-].CCCCC[n+]1ccccc1 + O
electrical conductivity [S/m]
Conditions	x1 = 0.9143	x1 = 0.9163	x1 = 0.9314	x1 = 0.948	x1 = 0.9673	x2 = 0.0023
293.15 K	0.0061	–	–	0.0049	0.0043	0.0034
298.15 K	0.0106	–	0.0094	–	0.007	0.0053
303.15 K	0.0175	0.0173	–	0.0128	0.0112	0.0081
308.15 K	0.024	–	–	0.0185	0.0162	0.0121
313.15 K	0.036	–	0.0335	0.029	0.0245	0.0179
318.15 K	0.051	–	0.0438	–	–	0.0266
323.15 K	0.071	–	0.0623	0.0532	0.0459	–
328.15 K	0.093	0.092	–	0.0715	0.061	0.045
333.15 K	–	0.125	0.111	0.095	0.0805	0.0572
338.15 K	–	0.171	0.151	–	0.109	0.0766
343.15 K	0.226	0.222	–	0.17	0.138	0.0955
